Assay results as given in patent publication US20240279174A1, “ANTIBIOTICS COMPRISING LPXH-TARGETING COMPOUNDS AND METHODS OF MAKING AND USING THE SAME” (Duke University, priority 2019, published 2024).
Converted amounts (≈) assume the structure as drawn. Read-outs that look alike come from different tables or passages of the source.

Key:
[1] = molecular target: K. pneumoniae LpxH (KpLpxH) (Klebsiella pneumoniae subsp. pneumoniae (strain ATCC 700721 / MGH 78578), UniProt A6T5R0); test: LpxE-coupled malachite green LpxH activity assay (KpLpxH inhibition); format: biochemical; settings: for Percentage Activity of KpLpxH (vi/v0) / remaining activity at 0.1 µM / inhibition at 0.1 µM: 0.1 μM inhibitor; for Percentage Activity of KpLpxH (vi/v0) / remaining activity at 0.1 µM: normalized against KpLpxH activity in 10% DMSO; for remaining activity at 0.1 µM: read-out: Percentage Activity of KpLpxH (vi/v0); for inhibition at 0.1 µM: read-out: Percentage Inhibition of KpLpxH
Method: Evaluation of LpxH inhibition by analogs: After completing the synthesis of sulfonyl piperazine compounds with various forms of linkers, the KpLpxH inhibition was biochemically characterized by these analogs at 0.1 μM using the nonradioactive, colorimetric malachite green assay that we had previously reported. […] Such an enhanced potency requires the presence of the hydroxamate group, as its substitution with a carboxylate group in compound 7 reduced the compound activity (vi/v0=30±6%).
The LpxE-coupled LpxH activity assay was conducted as described previously using the GB1-K. pneumoniae LpxH-His10 fusion protein. Briefly, two reaction mixtures were prepared. Mixture 1 contains 20 mM Tris-HCl (pH 8.0), 0.5 mg/mL BSA, 0.02% Triton X-100, 1 mM MnCl2, 1 mM DTT, 10% DMSO, and 200 µM substrate (UDP-DAGn), and mixture 2 is comprised of the same buffer, but instead of substrate, contains both LpxH (20 ng/ml) and 2× inhibitor. These mixtures were then pre-incubated at 37° C. for 10 min. To initiate the reaction, an equal volume of the LpxH mixture (mixture 2) was added to the substrate mixture (mixture 1) at 37° C. The final reaction solution contains 100 μM substrate, 10 ng/ml enzyme, and 1× inhibitor. At the desired reaction time points, an aliquot of 20 μL reaction mixture was removed and added to a well in 96-well half-area plate containing 5 mM EDTA (final concentration) to quench the LpxH reaction. Purified Aquifex aeolicus LpxE was then added to a final concentration of 5 μg/mL. The plate was incubated at 37° C. for 30 min followed by addition of formic acid to a final concentration of 3.75 M to quench the LpxE reaction. The malachite green reagent (Sigma Aldrich, catalog MAK307) was diluted 5-fold into the solutions, and the plate was incubated for 30 min at room temperature before the absorbance at 620 nm was measured. All measurements were done in triplicates, and standard error (S.E.) was calculated.

[2] = test system: K. pneumoniae (ATCC 10031); test: MIC assay (broth microdilution), K. pneumoniae; format: cell-based; settings: Klebsiella pneumoniae, ATCC10031
Method: The MIC assay protocol was adapted from the broth microdilution methods described by the National Committee for Clinical Laboratory Standards using 96-well plates as described previously. In brief, overnight bacterial cultures were diluted to an OD600 of 0.006 in cation-adjusted Mueller-Hinton medium containing 7% DMSO and incubated at 37° C. for 22 h in the presence of varying concentrations of inhibitors. Following overnight incubation, each well is treated with 10 μL of 3-(4,5-dimethylthiazol-2-yl)-2,5-diphenyltetrazolium bromide (MTT, 5 mg/mL) for 3 h. Finally, the culture is solubilized by addition of 2-propanol, and the results are read by taking the difference of the UV reading at both 570 and 690 nm. MIC values were reported as the lowest compound concentration that inhibited bacterial growth. The baseline for inhibited cell growth was determined to be <4× the average control reading due to the baseline optical density of the initial starting bacterial culture.

[3] = Table 4, read-out: MIC - K. pneumoniae (ATCC 10031)
[4] = Table 5, read-out: IC50: Average
[5] = K. pneumoniae (ATCC 10031), in vitro, read-out: MIC

| SMILES | MIC [2, 3] [µg/mL] | IC50 [1, 4] [µM] | further results |
| --- | --- | --- | --- |
| O=C(NCCn1cc(C(=O)NO)nn1)Nc1ccc(S(=O)(=O)N2CCN(c3cc(Cl)cc(C(F)(F)F)c3)CC2)cc1 [JH-LPH-62] | 24 (≈ 38.9 µM) | – | Percentage Activity of KpLpxH (vi/v0) ([1]; listed as 20 (JH-LPH-62)): 59 ± 7%; remaining activity at 0.1 µM [1]: 59 ± 7%; inhibition at 0.1 µM [1]: 41% |
| CC(=O)N1CCc2cc(S(=O)(=O)N3CCN(c4nc(C(F)(F)F)cs4)CC3)ccc21 [JH-LPH-85] | 12 (≈ 26.1 µM) | – | – |
| CC(=O)N1CCc2cc(S(=O)(=O)N3CCN(c4cc(C(F)(F)F)cc(Cl)n4)CC3)ccc21 [JH-LPH-92] | 0.063 (≈ 0.129 µM) | 0.005 | – |
| O=C(CCCCCNC(=O)Nc1ccc(S(=O)(=O)N2CCN(c3cc(Cl)cc(C(F)(F)F)c3)CC2)cc1)NO [JH-LPH-50] | 3.33 (≈ 5.62 µM) | 0.008 | Ki [1]: 0.0031 µM; Percentage Activity of KpLpxH (vi/v0) ([1]; listed as 13 (JH-LPH-50)): 3 ± 2%; remaining activity at 0.1 µM [1]: 3 ± 2%; inhibition at 0.1 µM [1]: 97%; IC50 ([1]; IC50 curves FIG. 3E/4E, read-out: IC50 of KpLpxH inhibition): 0.0077 µM; MIC [2, 5]: 3.3 µg/mL (≈ 5.57 µM) |
| NCCCCNC(=O)N1CCc2cc(S(=O)(=O)N3CCN(c4cc(C(F)(F)F)cc(Cl)n4)CC3)ccc21 [JH-LPH-99] | – | 0.011 | – |
| CC(=O)N1CCc2cc(S(=O)(=O)N3CCN(c4cc(F)cc(C(F)(F)F)c4)CC3)ccc21 [JH-LPH-28] | 3 (≈ 6.36 µM) | 0.139 | – |
| O=C(CN1CCOCC1)Nc1ccc(S(=O)(=O)N2CCN(c3cc(Cl)cc(C(F)(F)F)c3)CC2)cc1 [JH-LPH-69] | 4 (≈ 7.31 µM) | 0.079 | – |
| O=C(CC/C=C/CCC(=O)Nc1ccc(S(=O)(=O)N2CCN(c3cc(Cl)cc(C(F)(F)F)c3)CC2)cc1)NO [JH-LPH-66] | 26.7 (≈ 45.3 µM) | – | – |
| CC(=O)N1CCc2cc(S(=O)(=O)N3CCN(c4cc(C(F)(F)F)ccn4)CC3)ccc21 [JH-LPH-86] | 0.125 (≈ 0.275 µM) | – | – |
| CC(=O)N1CCc2cc(S(=O)(=O)N3CCN(c4cc(Br)cc(C(F)(F)F)c4)CC3)ccc21 [JH-LPH-48] | > 64 | 0.049 | – |
| CS(=O)(=O)Nc1ccc(S(=O)(=O)N2CCN(c3cc(Cl)cc(C(F)(F)F)c3)CC2)cc1 [JH-LPH-77] | > 64 | – | – |
| O=C(CN1CCOCC1)N1CCc2cc(S(=O)(=O)N3CCN(c4cc(Cl)cc(C(F)(F)F)c4)CC3)ccc21 [JH-LPH-70] | 10.7 (≈ 18.6 µM) | 0.062 | – |
| O=C(NCCn1cc(C(=O)O)nn1)Nc1ccc(S(=O)(=O)N2CCN(c3cc(Cl)cc(C(F)(F)F)c3)CC2)cc1 [JH-LPH-61] | > 64 | – | – |
| O=C(CCCCCCC(=O)Nc1ccc(S(=O)(=O)N2CCN(c3cc(Cl)cc(C(F)(F)F)c3)CC2)cc1)NO [JH-LPH-65] | 12 (≈ 20.3 µM) | 0.013 | – |
| NC(=O)N1CCc2cc(S(=O)(=O)N3CCN(c4cc(Cl)cc(C(F)(F)F)c4)CC3)c(Cl)cc21 [JH-LPH-76] | > 64 | – | – |
| CN(C)CC(=O)N1CCc2cc(S(=O)(=O)N3CCN(c4cc(Cl)cc(C(F)(F)F)c4)CC3)ccc21 [JH-LPH-72] | > 64 | – | – |
| O=C(NCCCCc1cccn(O)c1=S)Nc1ccc(S(=O)(=O)N2CCN(c3cc(Cl)cc(C(F)(F)F)c3)CC2)cc1 [JH-LPH-60] | – | – | Percentage Activity of KpLpxH (vi/v0) ([1]; listed as 15 (JH-LPH-60)): 39 ± 6%; remaining activity at 0.1 µM [1]: 39 ± 6%; inhibition at 0.1 µM [1]: 61% |
| O=C(CCCCCC(=O)N1CCc2cc(S(=O)(=O)N3CCN(c4cc(Cl)cc(C(F)(F)F)c4)CC3)ccc21)NO [JH-LPH-46] | – | – | Percentage Activity of KpLpxH (vi/v0) ([1]; listed as 10 (JH-LPH-46)): 93 ± 7%; remaining activity at 0.1 µM [1]: 93 ± 7%; inhibition at 0.1 µM [1]: 7% |
| NC(=O)N1CCc2cc(S(=O)(=O)N3CCN(c4cc(C(F)(F)F)ccn4)CC3)ccc21 [JH-LPH-91] | 0.125 (≈ 0.274 µM) | 0.105 | – |
| NCCNC(=O)N1CCc2cc(S(=O)(=O)N3CCN(c4cc(C(F)(F)F)cc(Cl)n4)CC3)ccc21 [JH-LPH-95] | 4 (≈ 7.51 µM) | – | – |
| O=C(O)CCCCNC(=O)N1CCc2cc(S(=O)(=O)N3CCN(c4cc(Cl)cc(C(F)(F)F)c4)CC3)ccc21 [JH-LPH-55] | – | – | Percentage Activity of KpLpxH (vi/v0) ([1]; listed as 7 (JH-LPH-55)): 30 ± 6%; remaining activity at 0.1 µM [1]: 30 ± 6%; inhibition at 0.1 µM [1]: 70% |

| SMILES | MIC [2, 3] [µg/mL] | IC50 [1, 4] [µM] | further results |
| --- | --- | --- | --- |
| O=C(NO)c1ccc(-c2ccccc2C(=O)Nc2ccc(S(=O)(=O)N3CCN(c4cc(Cl)cc(C(F)(F)F)c4)CC3)cc2)cc1 [JH-LPH-80] | – | 0.431 | – |
| CCOC(=O)c1ccc(N2CCN(S(=O)(=O)c3ccc4c(c3)CCN4C(C)=O)CC2)cc1 [JH-LPH-82] | > 64 | – | – |
| O=C(O)CCCCCNC(=O)Nc1ccc(S(=O)(=O)N2CCN(c3cc(Cl)cc(C(F)(F)F)c3)CC2)cc1 [JH-LPH-54] | – | – | Percentage Activity of KpLpxH (vi/v0) ([1]; listed as 12 (JH-LPH-54)): 57 ± 3%; remaining activity at 0.1 µM [1]: 57 ± 3%; inhibition at 0.1 µM [1]: 43% |
| CC(=O)N1CCc2cc(S(=O)(=O)N3CCN(c4nccc(C(F)(F)F)n4)CC3)ccc21 [JH-LPH-93] | 1.33 (≈ 2.92 µM) | 0.032 | – |
| O=C(CCCCNC(=O)Nc1ccc(S(=O)(=O)N2CCN(c3cc(Cl)cc(C(F)(F)F)c3)CC2)cc1)NO [JH-LPH-41] | 10.7 (≈ 18.5 µM) | 0.073 | remaining activity at 0.1 µM [1]: 36%; inhibition at 0.1 µM [1]: 64% |
| O=C(CCCn1cc(C(=O)Nc2ccc(S(=O)(=O)N3CCN(c4cc(Cl)cc(C(F)(F)F)c4)CC3)cc2)nn1)NO [JH-LPH-74] | > 64 | – | – |
| NCC(=O)N1CCc2cc(S(=O)(=O)N3CCN(c4cc(Cl)cc(C(F)(F)F)c4)CC3)ccc21 [JH-LPH-71] | 8 (≈ 15.9 µM) | – | – |
| O=C(CCCCNC(=O)N1CCc2cc(S(=O)(=O)N3CCN(c4cc(Cl)cc(C(F)(F)F)c4)CC3)ccc21)NO [JH-LPH-45] | 18.7 (≈ 30.9 µM) | 0.017 | IC50 [1]: 0.018 µM; Ki [1]: 0.0073 µM; Percentage Activity of KpLpxH (vi/v0) ([1]; listed as 8 (JH-LPH-45)): 18 ± 1%; remaining activity at 0.1 µM [1]: 18 ± 1%; inhibition at 0.1 µM [1]: 82%; MIC [2, 5]: 18.7 µg/mL (≈ 31 µM) |
| O=C(/C=C/CCCNC(=O)Nc1ccc(S(=O)(=O)N2CCN(c3cc(Cl)cc(C(F)(F)F)c3)CC2)cc1)NO [JH-LPH-64] | 20 (≈ 33.9 µM) | – | Percentage Activity of KpLpxH (vi/v0) ([1]; listed as 18 (JH-LPH-64)): 34 ± 7%; remaining activity at 0.1 µM [1]: 34 ± 7%; inhibition at 0.1 µM [1]: 66% |
| C/C=C/CN1CCN(S(=O)(=O)c2ccc3c(c2)CCN3C(C)=O)CC1 [JH-LPH-83] | 64 (≈ 176 µM) | – | – |
| CC(=O)N1CCc2cc(S(=O)(=O)N3CCN(C4CCCCC4)CC3)ccc21 [JH-LPH-81] | 32 (≈ 81.7 µM) | – | – |
| CS(=O)(=O)N1CCc2cc(S(=O)(=O)N3CCN(c4cc(Cl)cc(C(F)(F)F)c4)CC3)ccc21 [JH-LPH-47] | > 64 | – | – |
| CC(=O)n1ccc2cc(S(=O)(=O)N3CCN(c4cc(Cl)cc(C(F)(F)F)c4)CC3)ccc21 [JH-LPH-42] | > 64 | – | – |
| CCCCN1CCN(S(=O)(=O)c2ccc3c(c2)CCN3C(C)=O)CC1 [JH-LPH-84] | 32 (≈ 87.6 µM) | – | – |
| NC(=O)N1CCc2cc(S(=O)(=O)N3CCN(c4cccc(C(F)(F)F)n4)CC3)ccc21 [JH-LPH-94] | > 64 | – | – |
| O=C(CCCCNC(=O)N1CCc2cc(S(=O)(=O)N3CCN(c4cc(C(F)(F)F)cc(Cl)n4)CC3)ccc21)NO [JH-LPH-96] | 0.83 (≈ 1.37 µM) | 0.002 | – |
| NC(=O)N1CCc2cc(S(=O)(=O)N3CCN(c4cc(Cl)cc(C(F)(F)F)c4)CC3)c(F)cc21 [JH-LPH-75] | > 64 | – | – |
| NCCCNC(=O)N1CCc2cc(S(=O)(=O)N3CCN(c4cc(C(F)(F)F)cc(Cl)n4)CC3)ccc21 [JH-LPH-98] | – | 0.024 | – |
| O=C(CCCCCCC(O)Cn1cncn1)Nc1ccc(S(=O)(=O)N2CCN(c3cc(Cl)cc(C(F)(F)F)c3)CC2)cc1 (stereo not drawn) [JH-LPH-68] | 28 (≈ 43.5 µM) | – | – |
| O=C(COCc1ccc2nonc2c1)N1CCc2cc(S(=O)(=O)N3CCN(c4cc(Cl)cc(C(F)(F)F)c4)CC3)ccc21 [JH-LPH-79] | – | 0.037 | – |
